Values after ≈ are worked out from the molar mass of the structure shown. Like-named read-outs stand apart in the source and are kept apart here.
Assays:
Assay in all cases: microbe, parasite or virus in culture
[1] = system: Enterococcus faecalis; assay type: cell-based
[2] = system: Enterococcus faecium; assay type: cell-based; conditions: Enterococcus faecium
[3] = system: Acinetobacter baumannii-calcoaceticus complex; assay type: cell-based; conditions: Acinetobacter, ABC species complex, read-out: MIC
[4] = system: Escherichia coli; assay type: cell-based; conditions: Escherichia coli, read-out: MIC
[5] = system: E. cloacae species complex; assay type: cell-based, Enterobacter cloacae; conditions: Enterobacter cloacae, read-out: MIC
[6] = system: Pseudomonas aeruginosa; assay type: cell-based
[7] = system: Streptococcus pneumoniae; assay type: cell-based
[8] = system: Staphylococcus aureus; assay type: cell-based; conditions: Staphylococcus aureus, read-out: MIC
[9] = system: Klebsiella pneumoniae

Question: With `C[C@H]1COc2c(N3CCN(C)CC3)c(F)cc3c(=O)c(C(=O)O)cn1c23` [Levofloxacin, reference compound] as the molecule, how does the MIC ([1]; ATCC29212, Enterococcus faecalis ATCC 29212, QC, read-out: MIC) read?
Answer: 0.5 µg/mL (≈ 1.38 µM)

Question: What about the MIC ([1]; Enterococcus faecalis, Collection No. 1204777, VRE, read-out: MIC) of the same molecule?
Answer: 32 µg/mL (≈ 88.6 µM)

Question: And the MIC ([1]; Enterococcus faecalis, Collection No. 1211589, VRE)?
Answer: 32 µg/mL (≈ 88.6 µM)

Question: And the MIC ([2]; Collection No. 1196024, VRE, read-out: MIC)?
Answer: > 64 µg/mL

Question: And the MIC ([2]; Collection No. 1208412, VRE)?
Answer: >64 µg/mL

Question: What about the MIC ([2]; Collection No. 1222807, VSE, read-out: MIC) of the same molecule?
Answer: 8 µg/mL (≈ 22.1 µM)

Question: And the MIC ([3]; Collection No. 1204424, non-MDR)?
Answer: 0.12 µg/mL (≈ 0.332 µM)

Question: What about the MIC ([3]; Collection No. 1208060, non-MDR) of the same molecule?
Answer: 0.06 µg/mL (≈ 0.166 µM)

Question: And the MIC ([3]; Collection No. 1215088, MDR)?
Answer: 32 µg/mL (≈ 88.6 µM)

Question: What about the MIC ([3]; Collection No. 1215098, MDR) of the same molecule?
Answer: 16 µg/mL (≈ 44.3 µM)

Question: What about the MIC ([3]; Collection No. 1216520, non-MDR) of the same molecule?
Answer: 0.25 µg/mL (≈ 0.692 µM)

Question: And the MIC ([4]; ATCC25922, Escherichia coli ATCC 25922, QC)?
Answer: 0.015 µg/mL (≈ 0.0415 µM)

Question: What about the MIC ([4]; ATCCBAA2452, Escherichia coli ATCC BAA-2452, NDM-1) of the same molecule?
Answer: 0.03 µg/mL (≈ 0.083 µM)

Question: What about the MIC ([4]; Collection No. 1191008, MDR, ESBL) of the same molecule?
Answer: 32 µg/mL (≈ 88.6 µM)

Question: And the MIC ([4]; Collection No. 1231795, MDR, ESBL)?
Answer: 8 µg/mL (≈ 22.1 µM)

Question: What about the MIC ([4]; Collection No. 1232428, MDR (COL-R), ESBL) of the same molecule?
Answer: 8 µg/mL (≈ 22.1 µM)

Question: And the MIC ([4]; Collection No. 1248389, ESBL)?
Answer: 8 µg/mL (≈ 22.1 µM)

Question: What about the MIC ([5]; B. cloacae species complex, Collection No. 1204419, non-MDR) of the same molecule?
Answer: 0.03 µg/mL (≈ 0.083 µM)

Question: What about the MIC ([5]; Collection No. 1230117, non-MDR) of the same molecule?
Answer: 0.015 µg/mL (≈ 0.0415 µM)

Question: What about the MIC ([5]; E. cloacae species complex, Collection No. 1197959, non-MDR) of the same molecule?
Answer: 0.25 µg/mL (≈ 0.692 µM)

Question: What about the MIC ([5]; E. cloacae species complex, Collection No. 1230601, non-MDR) of the same molecule?
Answer: 0.03 µg/mL (≈ 0.083 µM)

Question: And the MIC ([5]; E. cloacae species complex, Collection No. 1232701, MDR)?
Answer: 8 µg/mL (≈ 22.1 µM)

Question: And the MIC ([6]; Pseudomonas aeruginosa ATCC 27853, QC)?
Answer: 0.5 µg/mL (≈ 1.38 µM)

Question: What about the MIC ([6]; Pseudomonas aeruginosa, ATCC27853, Pseudomonas aeruginosa ATCC 27853, QC, read-out: MIC) of the same molecule?
Answer: 1 µg/mL (≈ 2.77 µM)

Question: What about the MIC ([6]; Pseudomonas aeruginosa, Collection No. 1190985, non-MDR, read-out: MIC) of the same molecule?
Answer: 0.25 µg/mL (≈ 0.692 µM)

Question: And the MIC ([6]; Pseudomonas aeruginosa, Collection No. 1202638, MDR, read-out: MIC)?
Answer: 16 µg/mL (≈ 44.3 µM)

Question: And the MIC ([6]; Pseudomonas aeruginosa, Collection No. 1210081, non-MDR, read-out: MIC)?
Answer: 0.5 µg/mL (≈ 1.38 µM)

Question: What about the MIC ([6]; Pseudomonas aeruginosa, Collection No. 1242554, non-MDR, read-out: MIC) of the same molecule?
Answer: 0.5 µg/mL (≈ 1.38 µM)

Question: And the MIC ([6]; Pseudomonas aeruginosa, Collection No. 1263496, MDR, read-out: MIC)?
Answer: 0.25 µg/mL (≈ 0.692 µM)

Question: And the MIC ([7]; ATCC49619, Streptococcus pneumoniae ATCC 49619, QC, read-out: MIC)?
Answer: 0.5 µg/mL (≈ 1.38 µM)

Question: And the MIC ([7]; Streptococcus pneumoniae, Collection No. 1200385, PEN-S, read-out: MIC)?
Answer: 1 µg/mL (≈ 2.77 µM)

Question: And the MIC ([7]; Streptococcus pneumoniae, Collection No. 1219456, PEN-R)?
Answer: 1 µg/mL (≈ 2.77 µM)

Question: And the MIC ([7]; Streptococcus pneumoniae, Collection No. 1219876, PEN-R)?
Answer: 1 µg/mL (≈ 2.77 µM)

Question: And the MIC ([7]; Streptococcus pneumoniae, Collection No. 1223661, PEN-R)?
Answer: 1 µg/mL (≈ 2.77 µM)

Question: What about the MIC ([7]; Streptococcus pneumoniae, Collection No. 1227224, PEN-S) of the same molecule?
Answer: 1 µg/mL (≈ 2.77 µM)

Question: What about the MIC ([8]; MRSA / USA300, Staphylococcus aureus, Collection No. 1124691, MRSA (USA300)/MDR) of the same molecule?
Answer: 8 µg/mL (≈ 22.1 µM)

Question: And the MIC ([8]; MRSA, Collection No. 1189667, MRSA/MDR)?
Answer: > 64 µg/mL

Question: And the MIC ([8]; MRSA, Collection No. 1189809, MRSA/MDR)?
Answer: 32 µg/mL (≈ 88.6 µM)

Question: And the MIC ([8]; MRSA, Collection No. 1190388, MRSA)?
Answer: 16 µg/mL (≈ 44.3 µM)

Question: What about the MIC ([8]; MRSA, Collection No. 1221979, MRSA) of the same molecule?
Answer: 1 µg/mL (≈ 2.77 µM)

Question: And the MIC ([9]; ATCC700603, Klebsiella pneumoniae ATCC 700603, ESBL)?
Answer: 1 µg/mL (≈ 2.77 µM)

Question: And the MIC ([9]; BAA1705, Klebsiella pneumoniae ATCC BAA 1705, KPC)?
Answer: 64 µg/mL (≈ 177 µM)

Question: And the MIC ([9]; Collection No. 1230887, non-MDR)?
Answer: 0.06 µg/mL (≈ 0.166 µM)

Question: And the MIC ([9]; Collection No. 1236064, non-MDR)?
Answer: 0.03 µg/mL (≈ 0.083 µM)
